PMC5407626 (PLoS ONE, 2017)
Where “and” joins values, the source holds several entries; their conditions need not be identical. Equal entries are not always repeated. Where two headings read alike, the source gives them in different places.

Legend:
[1] = target: T1, SCD1 (Homo sapiens, UniProt O00767); experiment: SCD1 activity in ARPE-19 cells (conversion of methyl-D3 palmitic acid to methyl-D3 palmitoleic acid, LC/MS); type: cell-based; details: for Palmitate (AUC) / Palmitoleic Acid (AUC) / Ratio (16:0 / 16:1): 10 μM 16 h, then 50 μM D3-palmitic acid 5 h, single samples; for Mean Ratio (16:0 / 16:1) / effect on SCD1 activity: 10 μM; for Mean Ratio (16:0 / 16:1): mean of 3 samples, DMSO 8.884; for effect on SCD1 activity: ARPE-19 cells
T1 construct: endogenous in cells; host or cells: ARPE-19
T1 sequence (O00767 1-359): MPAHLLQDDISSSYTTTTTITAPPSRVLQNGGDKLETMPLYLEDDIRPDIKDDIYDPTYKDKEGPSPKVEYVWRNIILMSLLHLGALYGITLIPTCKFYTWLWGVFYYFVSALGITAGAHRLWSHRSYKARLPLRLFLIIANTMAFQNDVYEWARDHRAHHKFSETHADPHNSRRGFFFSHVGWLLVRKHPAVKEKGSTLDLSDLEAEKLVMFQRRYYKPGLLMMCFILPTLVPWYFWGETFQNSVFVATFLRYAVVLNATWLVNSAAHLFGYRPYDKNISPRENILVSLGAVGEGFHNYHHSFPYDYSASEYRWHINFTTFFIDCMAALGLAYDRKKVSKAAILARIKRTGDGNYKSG
Procedure: (§1) Compounds were dissolved in dimethyl sulfoxide (DMSO) and then added to the cell culture medium. Cells designated as control received an equal amount of dimethyl sulfoxide. After 16 h, cells were incubated with 50 μM palmitic acid triply deuterated (D3) on the methyl group (Cambridge Isotope Laboratories, Tewksbury, MA) for an additional 5 h before harvesting.
Cells were detached from culture plates using 0.05% Trypsin-EDTA, washed with PBS, and pelleted. Cell pellets were resuspended in 450 μl Cell Lysis Buffer (Cell Signaling Technology, Danvers, MA) then sonicated on ice until uniformly dispersed. An aliquot (50 μl) of the dispersed cell suspension was used for protein quantitation, and the remaining 400 μl was used for lipid extraction as follows. Samples were spiked with a small volume of pentadecanoic acid (in CHCl3) as internal standard, and were then subjected to saponification (by addition of an equal volume of 0.6 M methanolic KOH and incubating at 72°C for 15 minutes). Following saponification, samples were acidified by addition of 100 μl formic acid. The acidified mixture was extracted twice with 1 ml chloroform to recover free fatty acids. The chloroform extracts were pooled, solvent was evaporated under argon at 37°C, and the residue was resolubilized in 100 μl chloroform/methanol (1:4) for analysis by liquid chromatography mass spectrometry (LC/MS) using a modification of the procedures of Dillon et al.. The LC-MS system consisted of a 1200 Series Capillary LC (Agilent, Santa Clara, CA) coupled to a Micromass Q-Tof micro mass spectrometer (Waters Corp., Milford, MA) equipped with an electrospray ionization source. Separation of fatty acids was achieved by isocratic elution on a PLRP-S polymeric reversed-phase column (100 Å, 3 μm, 2.1 x 150 mm; Agilent) heated to 65°C. A mobile phase consisting of 25% acetonitrile:chloroform (1:1), 40% methanol, 25% water, 10% 10 mM ammonium acetate was run at a flow rate of 0.1 ml/min. The mass spectral analysis of the fatty acids was performed in the negative ion mode using the following instrument settings: capillary voltage, 1600; sample cone voltage, 40; cone gas flow, 40 L/hr; desolvation gas flow, 400 L/hr; source temperature, 80°C; desolvation temperature, 100°C. Data was then analyzed using MassLynx software v 4.1 (Waters) by extracting the ion chromatograms of the labeled palmitic and palmitoleic acid peaks and measuring peak area.
(§2) Cell lysates were analyzed by Western blotting using mouse monoclonal antibody against SCD1 (upper panel) in comparison with immunoreactivity to α-tubulin which was employed as a loading control (lower panel) and densitometry for each lane was performed and analyzed by ImageJ to provide the SCD1/α-tubulin ratio for each lane. […] Free fatty acids present in lipid extracts were analyzed by LC/MS and SCD1 activity, measured by the conversion of methyl-D3 palmitic acid to methyl-D3 palmitoleic acid, was determined. […] Lipids were extracted from two 100 mm Petri dishes and combined for mass spectrometry analysis. Data plotted as means ± standard deviation; n = 3. […] They are given here as printed results in cells, but it is uncertain whether they fall under the exclusion for gels and blots. / Panel A: the Control lane (1.00) is left out because it is not a substance.

[2] = target: T2, recombinant mouse BCO1 (Mus musculus, UniProt Q9JJS6); experiment: In vitro inhibition of recombinant mouse BCO1 activity; type: biochemical
T2 construct: His-tag; made in house; host or cells: E. coli
T2 sequence (Q9JJS6 1-566): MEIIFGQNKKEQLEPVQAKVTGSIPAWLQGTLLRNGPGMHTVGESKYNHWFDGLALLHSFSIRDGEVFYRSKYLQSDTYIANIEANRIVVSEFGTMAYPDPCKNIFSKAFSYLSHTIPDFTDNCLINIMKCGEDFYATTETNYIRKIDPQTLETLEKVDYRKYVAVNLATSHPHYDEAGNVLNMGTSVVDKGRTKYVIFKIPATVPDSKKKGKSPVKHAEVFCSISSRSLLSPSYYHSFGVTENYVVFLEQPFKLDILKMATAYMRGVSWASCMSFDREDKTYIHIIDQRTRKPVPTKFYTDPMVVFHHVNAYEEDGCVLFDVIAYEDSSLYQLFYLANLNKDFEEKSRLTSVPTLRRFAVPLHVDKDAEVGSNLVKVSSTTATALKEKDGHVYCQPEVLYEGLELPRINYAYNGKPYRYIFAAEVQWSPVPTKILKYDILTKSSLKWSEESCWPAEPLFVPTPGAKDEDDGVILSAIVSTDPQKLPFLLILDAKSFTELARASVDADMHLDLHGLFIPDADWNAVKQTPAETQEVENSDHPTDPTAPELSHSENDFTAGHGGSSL
Text: Recombinant His-tag mouse BCO1 was produced in E.coli and purified using Talon CellThru (Clontech Labs, Inc., Mountain View, CA) resin as described previously. β-carotene was delivered in 1% octylthioglucoside. […] All other inhibitors were delivered in ethanol. […] The final concentration of ethanol in all samples was 1%. […] Data plotted as means±standard deviation; n = 3; […] Analysis was done in C57BL/6 wt (3 animals) and Bco1^-/- mice (13 animals).

[3] = system: SCD1; experiment: SCD1 protein expression in ARPE-19 cells (Western blot densitometry); type: cell-based, human; details: 10 μM
Procedure: as §1
Samples were resuspended in 20 μl 4X reducing NuPAGE LDS sample buffer (Invitrogen). For western blot analysis, equal amounts of total protein (50 μg) from cell extracts were subjected to SDS-polyacrylamide gel electrophoresis using 4–12% NUPAGE Bis-Tris gels and then transferred to a nitrocellulose membrane using iBlot® Dry Blotting System (Invitrogen, Carlsbad, CA). After blocking in 5% non-fat milk in Tris-buffered saline (TBS) containing 0.01% Tween 20 for 1 h, the membranes were incubated overnight at 4°C with mouse monoclonal anti-SCD1 antibody (1:200; Kamiya Biomedical Company). Peroxidase-conjugated goat anti-mouse IgG antibody was used as secondary antibody. Immunocomplexes were visualized by a chemiluminescence method using the ECL Prime western blotting Detection Kit (GE Healthcare Life Sciences). The blots were then stripped and reprobed with mouse monoclonal anti-α-tubulin antibody.
as §2

| effect on BCO1 activity ([2]; inhibitor 0–200 μM) | Compound | Palmitate (AUC) [1] | Palmitoleic Acid (AUC) [1] | Ratio (16:0 / 16:1) [1] | Mean Ratio (16:0 / 16:1) [1] | effect on SCD1 activity [1] | effect on SCD1 expression [3] | Palmitate (AUC) ([1]; listed as 4HPR) | Palmitoleic Acid (AUC) ([1]; listed as 4HPR) | IC50 ([2]; 20 μM β-carotene, enzyme preincubated with inhibitor 10 min at 4°C, read-out: IC50 BCO1) | IC50 [2] |
| --- | --- | --- | --- | --- | --- | --- | --- | --- | --- | --- | --- |
| does not affect BCO1 activity | O=C(O)c1ccccc1NC(=O)N1CCC(c2ccccc2C(F)(F)F)CC1 [A1120] | 625.27 and 963.80 and 854.94 | 74.04 and 107.80 and 111.92 | 8.445 and 8.941 and 7.639 | 8.342 | no inhibitory effect on SCD1 activity at all | do not affect |  |  |  |  |
|  | CC1=C(/C=C/C(C)=C/C=C/C(C)=C/C(=O)Nc2ccc(O)cc2)C(C)(C)CCC1 [fenretinide, N-[4-hydroxyphenyl]retinamide] |  |  |  |  | effective inhibitors of SCD1 activity | inhibitory effect on SCD1 expression | 1258.94 and 1398.36 and 1783.91 | 12.20 and 15.08 and 14.79 |  |  |
|  | COc1ccc(NC(=O)/C=C(C)/C=C/C=C(C)/C=C/C2=C(C)CCCC2(C)C)cc1 [MPR, N-[4-methoxyphenyl]retinamide] | 2368.01 and 2526.72 and 1327.38 |  | 8.882 and 7.657 and 8.556 | 8.365 | no inhibitory effect on SCD1 activity at all | do not affect |  |  | 5 µM |  |
|  | CC1=C(/C=C/C(C)=C/C=C/C(C)=C/C(=O)Nc2ccc(O)cc2)C(C)(C)CCC1=O [3-keto-HPR, 4-oxo-N-(4-hydroxyphenyl)retinamide] | 1476.16 and 1271.38 and 1913.30 | 17.56 and 10.07 and 19.08 | 84.064 and 126.254 and 100.278 | 103.532 | effective inhibitors of SCD1 activity | more efficiently inhibits SCD1 expression |  |  |  | 4 µM |
